Assay results: US20240398812A1 (Caraway Therapeutics, Inc., priority 2021, published 2024)

Key:
Assay type in all cases: cell-based
TRPML3 = target: T1, TRPML3 (Homo sapiens, UniProt Q8TDD5); assay: Fluorescent TRPML3 assay (as for TRPML1)
T1 construct: expressed in transfected cells
T1 sequence (Q8TDD5 1-553): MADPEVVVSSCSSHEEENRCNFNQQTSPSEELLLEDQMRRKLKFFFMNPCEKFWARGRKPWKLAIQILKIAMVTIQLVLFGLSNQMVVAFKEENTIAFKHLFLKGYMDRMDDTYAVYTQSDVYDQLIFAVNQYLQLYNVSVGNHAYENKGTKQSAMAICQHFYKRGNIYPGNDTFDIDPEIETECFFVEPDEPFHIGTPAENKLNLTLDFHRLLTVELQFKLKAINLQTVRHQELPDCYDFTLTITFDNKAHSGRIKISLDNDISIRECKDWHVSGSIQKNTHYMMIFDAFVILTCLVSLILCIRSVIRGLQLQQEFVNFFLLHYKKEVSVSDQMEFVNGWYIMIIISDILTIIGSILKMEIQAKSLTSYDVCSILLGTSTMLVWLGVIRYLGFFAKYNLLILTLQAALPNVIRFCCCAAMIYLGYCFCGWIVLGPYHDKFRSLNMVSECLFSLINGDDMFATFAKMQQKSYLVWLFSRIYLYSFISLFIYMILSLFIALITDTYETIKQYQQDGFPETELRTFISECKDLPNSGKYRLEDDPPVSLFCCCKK
How it was run: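 EC50 came from non-linear regression of percent activity, set against on-plate positive and negative controls, using Fluo4 fluorescence (ex 480, em 540 nm). Compounds ran in triplicate from 6 nM to 20 µM final in half-log steps. Doxycycline-induced (0.5 ug/mL) HEK-293 Trex cells expressing surface-directed mutant channel were in 10 mM calcium Ringer's.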

TRPML2 = target: T2, TRPML2 (Homo sapiens, UniProt Q8IZK6); assay: Fluorescent TRPML2 assay (as for TRPML1)
T2 construct: expressed in transfected cells
T2 sequence (Q8IZK6 1-566): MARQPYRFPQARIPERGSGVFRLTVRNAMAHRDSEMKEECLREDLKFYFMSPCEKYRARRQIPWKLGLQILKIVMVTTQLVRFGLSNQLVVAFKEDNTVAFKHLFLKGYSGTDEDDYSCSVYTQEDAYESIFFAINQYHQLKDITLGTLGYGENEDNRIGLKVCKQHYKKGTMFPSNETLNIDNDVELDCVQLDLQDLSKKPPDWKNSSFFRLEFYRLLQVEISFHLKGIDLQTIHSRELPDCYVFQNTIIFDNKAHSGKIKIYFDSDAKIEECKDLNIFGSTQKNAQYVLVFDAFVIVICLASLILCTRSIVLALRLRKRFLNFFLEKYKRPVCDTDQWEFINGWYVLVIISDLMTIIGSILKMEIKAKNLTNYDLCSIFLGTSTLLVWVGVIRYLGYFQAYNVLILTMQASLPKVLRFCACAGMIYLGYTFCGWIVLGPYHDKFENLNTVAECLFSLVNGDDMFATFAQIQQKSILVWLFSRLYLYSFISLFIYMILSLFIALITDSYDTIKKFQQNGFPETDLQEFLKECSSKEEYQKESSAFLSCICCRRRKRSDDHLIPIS
Experimental: HEK-293 Trex cells were stably transfected with a construct consisting of the human coding sequence for TRPML1 cloned into the tet-inducible plasmid pCDNA5 T/O. Mutations were introduced into the TRPML1 sequence to facilitate expression on the cell surface (Silvia Vergarajauregui, Rosa Puertollano Traffic. 2006 March; 7 (3): 337-353). Briefly, the cells are cultured in 150 mm round tissue culture dishes containing 20 mL of media. The day before the assay the cells are rinsed with DPBS —Ca—Mg and then treated briefly with Trypsin-EDTA. The Trypsin-EDTA is diluted with growth media, and cells are counted. 38×10^6 cells are re-plated into 150 mm round tissue culture dishes in media containing 0.5 ug/mL doxycycline to induce expression of hTRPML1.
The day of the experiment cells are lifted from the plates as above and collected by centrifugation. The cells are then suspended in dye loading buffer consisting of Ringer's solution supplemented with 0.1% Pluronic Acid and 1 micromolar Fluo4-AM dye. Cells are loaded for ˜60 minutes in the dark with occasional mixing. The cells are collected by centrifugation, the loading media aspirated, and the cells resuspended in 25 mL Ringer's solution and incubated ˜60 minutes in the dark. The cells are again collected by centrifugation, rinsed in Ringer's Solution and resuspended to 0.2×10^6 cells/mL in modified Ringer's solution containing 10 mM calcium.
Compounds are dissolved to a concentration of 10 millimolar with DMSO. Compound plates are created by dispensing compounds into 384 well black wall clear bottom plates (Greiner 781091). Positive and negative controls are included on each plate. Typically, different amounts of each compound are tested ranging from 100 nanoMoles (20 micromolar final concentration) decreasing in half-log steps to 31 picoMoles (6 nanomolar final concentration). Each concentration is typically tested in triplicate.
50 microliters of dye-loaded cells are dispensed into each well of the compound assay plate created above. The fluorescence in each well is then determined with an excitation wavelength of 480 nm and an emission wavelength of 540 nm using either a Molecular Devices SpectraMax multimode plate reader or a Hamamatsu FDSS/uCell plate imager.
The resulting fluorescence for each well is exported as an ascii file and loaded into our LIMS for analysis. The percent activity of each compound at each concentration is determined by comparison to the positive and negative control wells included in each plate.
Assays for TRPML2 and TRPML3 were performed as above for TRPML1, by substituting the appropriate TRPML2 or TRPML3 subtype for the TRPML1.
EC50 values were calculated using a non-linear regression of Prism. In the table, “A” indicates an EC50 of less than 100 nM, “B” indicates an EC50 range from 100 nM to 500 nM; “C” indicates an EC50 range from 500 nM to 2 μM; and “D” indicates an EC50 greater than 2 μM.

human TRPML1 = human TRPML1 (Homo sapiens, UniProt Q9GZU1); assay: Fluorescent TRPML1 assay (Fluo4-AM calcium fluorescence, HEK-293 Trex cells)
How it was run: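 Agonist EC50 from non-linear regression of percent activity versus on-plate controls, calcium signal read at 480/540 nm. Compounds spanned 6 nM–20 μM final in triplicate. Cells: doxycycline-induced HEK-293 Trex with cell-surface human TRPML1 mutant, Fluo4-AM loaded, in Ringer's containing 10 mM calcium.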

Sequence of human TRPML1 (Q9GZU1 whole entry L15A/L16A/L577A/L578A, form open): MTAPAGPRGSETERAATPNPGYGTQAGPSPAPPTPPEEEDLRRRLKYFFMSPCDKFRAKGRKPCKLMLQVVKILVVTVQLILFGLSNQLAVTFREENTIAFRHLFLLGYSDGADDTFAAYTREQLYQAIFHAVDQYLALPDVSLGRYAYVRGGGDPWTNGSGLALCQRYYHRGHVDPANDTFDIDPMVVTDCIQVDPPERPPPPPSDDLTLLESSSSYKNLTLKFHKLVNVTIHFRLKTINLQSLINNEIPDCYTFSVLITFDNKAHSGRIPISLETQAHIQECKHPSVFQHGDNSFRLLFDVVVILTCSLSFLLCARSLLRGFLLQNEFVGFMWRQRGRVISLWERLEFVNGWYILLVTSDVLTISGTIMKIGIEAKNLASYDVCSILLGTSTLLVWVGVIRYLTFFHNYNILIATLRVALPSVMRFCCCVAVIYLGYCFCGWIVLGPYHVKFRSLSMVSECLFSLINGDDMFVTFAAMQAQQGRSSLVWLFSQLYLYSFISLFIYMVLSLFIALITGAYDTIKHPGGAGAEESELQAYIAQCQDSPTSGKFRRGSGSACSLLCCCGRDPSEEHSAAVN

Row | EC50 (TRPML3; Table 3, compounds 201-283) | EC50 (TRPML2; Table 3, compounds 201-283) | EC50 (human TRPML1; Table 3, compounds 201-283) | EC50 (TRPML3; Table 3, compounds 101-177) | EC50 (TRPML2; Table 3, compounds 101-177) | EC50 (human TRPML1; Table 3, compounds 101-177) | SMILES
1 | < 100 nM | < 100 nM | < 100 nM |  |  |  | COC(C)(C)C(=O)N1C[C@H](C)N(c2ncnc3c2c(-c2ccccc2F)cn3-c2cc(C#N)ccn2)C[C@H]1C [Compound 232, 2-(5-(2-fluorophenyl)-4-((2S,5R)-4-(2-methoxy-2-methylpropanoyl)-2,5-dimethylpiperazin-1-yl)-7H-pyrrolo[2,3-d]pyrimidin-7-yl)isonicotinonitrile]
2 | 500 to 2000 nM | 500 to 2000 nM | 100 to 500 nM |  |  |  | C[C@@H]1CN(c2ncnc3c2c(N2CCCC2)cn3-c2cccc(Cl)c2)[C@@H](C)CN1C(=O)C1(F)CC1 [Compound 280, ((2R,5S)-4-(7-(3-chlorophenyl)-5-(pyrrolidin-1-yl)-7H-pyrrolo[2,3-d]pyrimidin-4-yl)-2,5-dimethylpiperazin-1-yl)(1-fluorocyclopropyl)methanone]
3 | 500 to 2000 nM | 500 to 2000 nM | 100 to 500 nM |  |  |  | C[C@@H]1CN(c2ncnc3c2c(N2CCCC2)cn3-c2cccc(Cl)c2)CCN1C(=O)C1(F)CC1 [Compound 279, (R)-(4-(7-(3-chlorophenyl)-5-(pyrrolidin-1-yl)-7H-pyrrolo[2,3-d]pyrimidin-4-yl)-2-methylpiperazin-1-yl)(1-fluorocyclopropyl)methanone]
4 | < 100 nM | 100 to 500 nM | < 100 nM |  |  |  | C[C@@H]1CN(c2ncnc3c2c(N2CCC2)cn3-c2cc(C#N)ccn2)CCN1C(=O)C1(F)CC1 [Compound 270, (R)-2-(5-(azetidin-1-yl)-4-(4-(1-fluorocyclopropane-1-carbonyl)-3-methylpiperazin-1-yl)-7H-pyrrolo[2,3-d]pyrimidin-7-yl)isonicotinonitrile]
5 | < 100 nM | 500 to 2000 nM | < 100 nM |  |  |  | C[C@@H]1CN(c2ncnc3c2c(C2CCC2)cn3-c2cc(C#N)ccn2)[C@@H](C)CN1C(=O)CC(C)(C)C(F)(F)F [Compound 239, 2-(5-cyclobutyl-4-((2S,5R)-2,5-dimethyl-4-(4,4,4-trifluoro-3,3-dimethylbutanoyl)piperazin-1-yl)-7H-pyrrolo[2,3-d]pyrimidin-7-yl)isonicotinonitrile]
6 | < 100 nM | 100 to 500 nM | < 100 nM |  |  |  | CC(C)CC(=O)N1CCN(c2ncnc3c2c(N2CCC2)cn3-c2cc(C#N)ccn2)C[C@H]1C [Compound 272, (R)-2-(5-(azetidin-1-yl)-4-(3-methyl-4-(3-methylbutanoyl)piperazin-1-yl)-7H-pyrrolo[2,3-d]pyrimidin-7-yl)isonicotinonitrile]
7 | 100 to 500 nM | 500 to 2000 nM | < 100 nM |  |  |  | COC(C)(C)C(=O)N1C[C@H](C)N(c2ncnc3c2c(N2CCC2)cn3-c2cccc(F)c2)C[C@H]1C [Compound 277, 1-((2R,5S)-4-(5-(azetidin-1-yl)-7-(3-fluorophenyl)-7H-pyrrolo[2,3-d]pyrimidin-4-yl)-2,5-dimethylpiperazin-1-yl)-2-methoxy-2-methylpropan-1-one]

Continued, compound first:

Row | SMILES | EC50 (TRPML3; Table 3, compounds 201-283) | EC50 (TRPML2; Table 3, compounds 201-283) | EC50 (human TRPML1; Table 3, compounds 201-283) | EC50 (TRPML3; Table 3, compounds 101-177) | EC50 (TRPML2; Table 3, compounds 101-177) | EC50 (human TRPML1; Table 3, compounds 101-177)
8 | CC(C)C(=O)N1CCN(c2ncnc3c2c(-c2ccccc2F)cn3-c2cc(C#N)ccn2)[C@@H](C)C1 [Compound 102, (S)-2-(5-(2-fluorophenyl)-4-(4-isobutyryl-2-methylpiperazin-1-yl)-7H-pyrrolo[2,3-d]pyrimidin-7-yl)isonicotinonitrile] |  |  |  | < 100 nM | 100 to 500 nM | < 100 nM
9 | C[C@H]1CN(C(=O)CC(C)(C)C(F)(F)F)CCN1c1ncnc2c1c(-c1ccccc1F)cn2-c1cc(C#N)ccn1 [Compound 140, (S)-2-(5-(2-fluorophenyl)-4-(2-methyl-4-(4,4,4-trifluoro-3,3-dimethylbutanoyl)piperazin-1-yl)-7H-pyrrolo[2,3-d]pyrimidin-7-yl)isonicotinonitrile] |  |  |  | < 100 nM | < 100 nM | < 100 nM
10 | C[C@@H]1CN(c2ncnc3c2c(C2CC2)cn3-c2cccc(F)c2)[C@@H](C)CN1C(=O)C(C)(C)C [Compound 214, 1-((2R,5S)-4-(5-cyclopropyl-7-(3-fluorophenyl)-7H-pyrrolo[2,3-d]pyrimidin-4-yl)-2,5-dimethylpiperazin-1-yl)-2,2-dimethylpropan-1-one] | 500 to 2000 nM | > 2000 nM | < 100 nM |  |  | 
11 | C[C@@H]1CN(c2ncnc3c2c(-c2ccccc2F)cn3-c2cc(C#N)ccn2)[C@@H](C)CN1C(=O)C(C)(C)O [Compound 158, 2-(5-(2-fluorophenyl)-4-((2S,5R)-4-(2-hydroxy-2-methylpropanoyl)-2,5-dimethylpiperazin-1-yl)-7H-pyrrolo[2,3-d]pyrimidin-7-yl)isonicotinonitrile] |  |  |  | < 100 nM | 100 to 500 nM | < 100 nM
12 | C[C@@H]1CN(c2ncnc3c2c(-c2ccccc2)cn3-c2cc(C#N)ccn2)CCN1C(=O)C(C)(C)C [Compound 121, (R)-2-(4-(3-methyl-4-pivaloylpiperazin-1-yl)-5-phenyl-7H-pyrrolo[2,3-d]pyrimidin-7-yl)isonicotinonitrile] |  |  |  | < 100 nM | 100 to 500 nM | < 100 nM
13 | C[C@@H]1CN(c2ncnc3c2c(-c2ccccc2F)cn3-c2cc(C#N)ccn2)CCN1C(=O)C(C)(C)F [Compound 126, (R)-2-(4-(4-(2-fluoro-2-methylpropanoyl)-3-methylpiperazin-1-yl)-5-(2-fluorophenyl)-7H-pyrrolo[2,3-d]pyrimidin-7-yl)isonicotinonitrile] |  |  |  | < 100 nM | 100 to 500 nM | < 100 nM
14 | COC(C)(C)C(=O)N1C[C@H](C)N(c2ncnc3c2c(C(F)(F)F)cn3-c2cccc(F)c2)C[C@H]1C [Compound 223, 1-((2R,5S)-4-(7-(3-fluorophenyl)-5-(trifluoromethyl)-7H-pyrrolo[2,3-d]pyrimidin-4-yl)-2,5-dimethylpiperazin-1-yl)-2-methoxy-2-methylpropan-1-one] | 100 to 500 nM | > 2000 nM | < 100 nM |  |  | 
